The text below walks through data of patent US10682330B2, “Method for producing liposome encapsulating paclitaxel monoglycoside and/or docetaxel monoglycoside” (ENSUIKO SUGAR REFINING CO., LTD., priority 2012, dated 2020).

The nature of series [1]: Solubility in mixed solvent Cremophor EL:ethanol:PBS (pH 7.4) 12:12:76 (Test Example 1). To be noted: for solubility: Cremophor EL:ethanol:PBS 12:12:76 mixed solvent, pH 7.4, aqueous with cosolvent or surfactant or cyclodextrin, ethanol, Cremophor EL, PBS pH 7.4 (12:12:76); for Concentration at which dissolved: Cremophor:ethanol:PBS (pH 7.4) 12:12:76. In kind it is physicochemical. Here is the method: Powdery gPTX and paclitaxel (hereinbelow, referred to as PTX in the Examples) produced by the method disclosed in NPL 1 were individually weighed in predetermined amounts, followed by addition of ethanol (120 μL) and mixing using a vortex. Cremophor® EL (available from Wako Pure Chemical Industries. Ltd.) (120 μL) was further mixed with each solution liquid, and then PBS (pH 7.4, 760 μL) was mixed. The solubility of each of the gPTX and PTX was confirmed.

The nature of series [2]: Encapsulation efficiency and loading efficiency in liposome by HPLC (Test Example 2). Type of series: physicochemical. The conditions noted are these: drug solution in 40% EG (1 mg/mL), comparative example. Here is the method:
Subsequently, after the eggplant flask was immersed in a hot bath at 60° C. for five minutes, a gPTX solution (1 ml) (Cremophor:ethanol:ultra-pure water=12:12:76, volume ratio) adjusted to a concentration of 20 mg/ml, or a PTX solution (Cremophor:ethanol:ultra-pure water=12:12:76, volume ratio) at a concentration of 2 mg/ml was added thereto to dissolve the lipid film, thus preparing a multilamellar vesicle (MLV).
In a comparative example, the above-mentioned 1 mg/ml gPTX solution (10 mM phosphate buffer containing 40% (volume) ethylene glycol) was used in place of the 20 mg of gPTX solution to encapsulate gPTX in a liposome.
The efficiency of paclitaxel monoglycoside encapsulated in the obtained liposome or immunoliposome was calculated as follows. First, the standard curve of each of the gPTX and PTX was obtained. […]
Next, 0.1% Triton X-100 ( 1/10 volume) was added to a prepared liposome, and the liposome was broken by sonication. Thereafter, the solution (10 μl) was measured by HPLC, and the encapsulated drug amount was obtained using the standard curve. […]
Using the following formulae (1) and (2), the encapsulation efficiency (EE) and loading efficiency (LE) were calculated based on the obtained drug amount. […]

The test system of series [3] is HT-29, colon adenocarcinoma cell. Kind of series: Anti-cancer activity, MTT assay on HT-29 (Test Example 9). To be noted: for IC100 / IC50: 72 hours; for IC50: Homo sapiens; for IT50: drug added at IC100. Type of series: cell-based. Here is the method:
(§1) In the same manner as in Test Example 3, anti-cancer activity was measured. SK-BR-3, which is a human-derived breast cancer cell, and HT-29, which is a colon adenocarcinoma cell, were used. Specifically, cells were seeded to a 96 well-plate at 5000 cells/well, and incubated for 24 hours. Then, PTX, gPTX, gPTX-L, and gPTX-IL were separately added at different concentrations, followed by incubation.
(§2) 72 hours later, the percentage of cell viability was calculated by an MTT assay. First, the concentration (IC50) at which 50% of the cells die was obtained from the survival curve. Subsequently, the time (IT50) at which 50% of the cells die was obtained from the survival curve. After the cells were seeded, PTX, gPTX, gPTX-L, or gPTX-IL was added at a concentration attaining IC100, which was obtained from the survival curve. Incubation was then performed for 1, 2, 6, 12, 24, 48, or 72 hours, and then medium exchange was performed. 72 hours after the drug addition, the MTT assay was performed in the same manner as in the above experiment to obtain the survival rate, and calculate the IT50 therefrom.
For orientation: Tetrazolium assays rely on reduction of a dye to a coloured formazan, in cell work by metabolically active cells.

Series [4] concerns SK-BR-3, human-derived breast cancer cell. Kind of series: Anti-cancer activity, MTT assay on SK-BR-3 (Test Example 9). Type of series: cell-based. The conditions noted are these: for IC50: Homo sapiens; for IC50 / IT50: SK-BR-3; for IC50 / IC100: SK-BR3, 72 hours; for IT50: drug added at IC100. The procedure: as §1, §2
The test system is the same in series [5]. Briefly: Anti-cancer activity, MTT assay (Test Example 3). In kind it is cell-based. To be noted: PTX, gPTX dissolved in DMSO, liposomes prepared with gPTX in 40% ethylene glycol solution; for IC50: Homo sapiens. The procedure: IC50 of each of the PTX and gPTX dissolved in DMSO, and gPTX-L and gPTX-IL prepared by using gPTX dissolved in a 40% (volume) ethylene glycol solution was measured by an MTT assay. As a test target cell, SK-BR-3, which is a human-derived breast cancer cell, was used. IT50 was also calculated. IT50 indicates the half of time required for attaining the drug concentration at which all of the cells die, and can be easily calculated based on the survival curve obtained by plotting the percentage of cell viability to the time axis.

For the next series, the system named is ICR-nu/nu mouse. Briefly: Body weight shift and survival in HT-29 bearing mice (Test Example 11). In kind it is in vivo. To be noted: total dose of gPTX 150 mg/kg; N=4. From the text: (§3) HT-29 cells were subcutaneously administered at 3.0×10^6 cells to each ICR-nu/nu mouse (male, 5 weeks old). When the tumor volume became about 50 to 200 mm^3, the above gPTX, the gPTX-L produced in Test Example 7, the gPTX-IL produced in Test Example 9, trastuzumab, the liposome (empty L) encapsulating no gPTX and having no antibody (trastuzumab) produced in Test Example 9, the liposome (empty IL) encapsulating […] and having an antibody (trastuzumab) produced in Test Example 9, a CEP buffer, or PBS was administered via tail vein two times at an interval of 3 hours (N=4). The dose per each was 200 μl/20 g. The total dose of gPTX was 150 mg/kg, and the total dose of trastuzumab was 200 mg/kg. The tumor volume shift after administration was observed. […] The tumor volume was calculated from the formula (3) below. Tumor volume=(tumor smallest diameter^2×tumor longest diameter)/2 (3)
The body weight shift and the survival rate in each group were measured. FIGS. 6 to 9 show the results.

A further series has as its system HT-29 tumor. Kind of series: In vivo anti-cancer activity, tumor volume (Test Example 11). More on the design: species or system ICR-nu/nu mouse. To be noted: tail vein two times, interval 3 hours; total gPTX 150 mg/kg, trastuzumab 200 mg/kg; N=4.
From the text: as §3

A further series has as its system BALB/c mouse. The conditions noted are these: in vivo. The procedure: Specifically, gPTX, gPTX-L, a CEP buffer (Cremophor:ethanol:ultra-pure water=12:12:76; volume ratio), or PBS was administered via tail vein to each BALB/c mouse (female, 6 weeks old) two times with an interval of three hours (N=4). The dose per each was 200 μl/20 g. The total dose of gPTX was 150 or 100 mg/kg in view of gPTX. Observation over time was performed during and after the administration.

Series [6] is described as follows: Solubility in 10 mM phosphate buffer containing 10 to 40% ethylene glycol (Test Example 1). The conditions noted are these: aqueous with cosolvent or surfactant or cyclodextrin. Type of series: physicochemical. Here is the method:
In all cases, gPTX was mixed so that the concentration became 1 mg/mL.

Molecules are shown by their SMILES. ≈ marks a conversion by molar mass, not a printed value.

As to `CC(=O)O[C@H]1C(=O)[C@@]2(C)[C@H]([C@H](OC(=O)c3ccccc3)[C@]3(O)C[C@H](OC(=O)[C@H](O)[C@@H](NC(=O)c4ccccc4)c4ccccc4)C(C)=C1C3(C)C)[C@]1(OC(C)=O)CO[C@@H]1C[C@@H]2O` [PTX, paclitaxel], the solubility in series [1] (Concentration 2 mg/ml) is greater than 2000 µg/mL; in series [1] (Concentration 3 mg/ml) it was less than 3000 µg/mL; in series [1] (Concentration 10 mg/ml), less than 3000 µg/mL; in series [1] (Concentration 20 mg/ml), less than 3000 µg/mL. In series [1], the “Concentration at which dissolved” value is given as “about 2 mg/ml”. Further, the “EE (encapsulation efficiency)” value in [2] was “not encapsulated in the liposome”. Further, the IC100 in series [3] is 10 nM; in series [4] it was 30 nM. The IC50 in series [3] is 1.3 ± 0.5 nM; in [4], 5.5 ± 1.3 nM; in series [5], 5.91 nM. Also, the “IT50” value in series [3] came out at 11.9 h; in [4], 9.8 h; in [5], 15.9 h.

Regarding `CC(=O)O[C@H]1C(=O)[C@@]2(C)C([C@H](OC(=O)c3ccccc3)[C@@]3(O)CC1=C(C)C(OC(=O)[C@H](O)[C@@H](NC(=O)c1ccccc1)c1ccccc1)C3)[C@]1(OC(C)=O)CO[C@@H]1C[C@H]2OC(=O)COC1OC(CO)C(O)C(O)C1O` (stereo partly drawn) [gPTX, 7-α-glucosyloxyacetylpaclitaxel], the solubility in series [1] (Concentration 2 mg/ml) is greater than 20000 µg/mL; in series [1] (Concentration 10 mg/ml), greater than 20000 µg/mL; in [1] (Concentration 20 mg/ml) it was greater than 20000 µg/mL; in [1] (Concentration 30 mg/ml), less than 30000 µg/mL; in series [6] (Ethylene glycol (EG) 10%, 10 mM phosphate buffer, read-out: Solubility of 1 mg/mL gPTX), less than 1000 µg/mL; in series [6] (Ethylene glycol (EG) 20%, 10 mM phosphate buffer, read-out: Solubility of 1 mg/mL gPTX), less than 1000 µg/mL. The solubility in [6] (Ethylene glycol (EG) 30%, 10 mM phosphate buffer, read-out: Solubility of 1 mg/mL gPTX) was less than 1000 µg/mL; in series [6] (Ethylene glycol (EG) 40%, 10 mM phosphate buffer, read-out: Solubility of 1 mg/mL gPTX), greater than 1000 µg/mL; in series [6] (PBS containing 40% (volume) ethylene glycol, read-out: Solubility of gPTX), roughly 1000 µg/mL (≈ 956 µM). The “Concentration at which dissolved” value in [1] worked out at 20000 µg/mL. Besides, in the series on ICR-nu/nu mouse, the Body weight shift entry is on record as “remarkable body weight loss”. The Deaths after administration result in the series with ICR-nu/nu mouse was “two mice died in three hours after the administration, and one died one week after the administration”. Further, the results for the IC100 in [3] and in series [4] were 50 nM and 100 nM, respectively. Besides, the IC50 in series [3] came to 11 ± 0.8 nM; in [4], 18.9 ± 1.1 nM; in series [5], 46 nM. For the same molecule, the “IT50” value in [3] stood at 9.6 h; in series [4], 8.3 h; in series [5], 18.7 h. Further, the “Tumor growth inhibition effect (tumor volume)” value in the series with HT-29 tumor is recorded as “remarkably excellent anti-tumor growth inhibition effect”. The “Body weight change (FIG. 4)” value in the series with BALB/c mouse is “significant body weight loss”. Further, the “Mice dead one day after the administration (FIG. 3)” value with BALB/c mouse is given as “three”.

By IC50 is commonly meant the concentration that inhibits the measured activity by half. A low value points to greater potency in that assay.
